In the NIST ThermoML archive (doi:10.1016/j.jct.2019.01.021):
“And” between values parts separate entries of the source, which are not always exact repeats. Identical values can stand only once. ± gives the expanded uncertainty stated by the source.

Experiment: molar heat capacity at constant pressure
Settings: 101.33 kPa, Crystal 2, Small (less than 1 g) adiabatic calorimetry

N.NS(=O)(=O)O [ammonium sulfamate]
Settings	molar heat capacity at constant pressure
187.31 K	118.02 ± 0.59 J/K/mol
188.37 K	118.34 ± 0.59 J/K/mol
189.42 K	118.66 ± 0.6 J/K/mol
190 K	119.06 ± 0.58 J/K/mol
190.47 K	118.99 ± 0.6 J/K/mol
191.52 K	119.43 ± 0.6 J/K/mol
192.57 K	119.89 ± 0.6 J/K/mol
193.62 K	120.26 ± 0.6 J/K/mol
194.67 K	120.69 ± 0.61 J/K/mol
195.72 K	121.06 ± 0.61 J/K/mol
196.77 K	121.57 ± 0.61 J/K/mol
197.82 K	122.07 ± 0.61 J/K/mol
198.87 K	122.46 ± 0.61 J/K/mol
199.92 K	122.56 ± 0.61 J/K/mol
200 K	122.64 ± 0.58 J/K/mol
200.85 K	122.86 ± 0.62 J/K/mol
201.65 K	123.16 ± 0.62 J/K/mol
202.45 K	123.44 ± 0.62 J/K/mol
203.24 K	123.74 ± 0.62 J/K/mol
204.05 K	123.89 ± 0.62 J/K/mol
204.85 K	124.1 ± 0.62 J/K/mol
205.65 K	124.38 ± 0.62 J/K/mol
206.45 K	124.7 ± 0.62 J/K/mol
207.25 K	124.92 ± 0.62 J/K/mol
208.05 K	125.1 ± 0.62 J/K/mol
208.86 K	125.38 ± 0.62 J/K/mol
209.66 K	125.69 ± 0.62 J/K/mol
210 K	125.96 ± 0.58 J/K/mol
210.46 K	125.83 ± 0.62 J/K/mol
211.26 K	126.04 ± 0.62 J/K/mol
212.07 K	126.32 ± 0.62 J/K/mol
212.87 K	126.64 ± 0.62 J/K/mol
213.68 K	127 ± 0.63 J/K/mol
214.48 K	127.38 ± 0.63 J/K/mol
215.28 K	127.75 ± 0.63 J/K/mol
216.09 K	127.78 ± 0.63 J/K/mol
216.9 K	127.98 ± 0.63 J/K/mol
217.7 K	128.19 ± 0.63 J/K/mol
218.51 K	128.52 ± 0.63 J/K/mol
219.31 K	128.78 ± 0.64 J/K/mol
220 K	129.21 ± 0.58 J/K/mol
220.12 K	129.04 ± 0.64 J/K/mol
220.93 K	129.3 ± 0.64 J/K/mol
221.73 K	129.49 ± 0.64 J/K/mol
222.54 K	129.74 ± 0.64 J/K/mol
223.35 K	130.02 ± 0.64 J/K/mol
224.16 K	130.26 ± 0.64 J/K/mol
224.97 K	130.53 ± 0.64 J/K/mol
225.78 K	130.71 ± 0.64 J/K/mol
226.59 K	130.98 ± 0.65 J/K/mol
227.4 K	131.32 ± 0.65 J/K/mol
228.21 K	131.61 ± 0.65 J/K/mol
229.02 K	131.83 ± 0.65 J/K/mol
229.83 K	132.08 ± 0.65 J/K/mol
230 K	132.37 ± 0.58 J/K/mol
230.64 K	132.31 ± 0.65 J/K/mol
231.45 K	132.78 ± 0.66 J/K/mol
232.27 K	133.46 ± 0.66 J/K/mol
233.08 K	133.22 ± 0.66 J/K/mol
233.89 K	133.51 ± 0.66 J/K/mol
234.71 K	133.83 ± 0.66 J/K/mol
235.52 K	134.25 ± 0.66 J/K/mol
236.33 K	134.61 ± 0.66 J/K/mol
237.15 K	134.97 ± 0.67 J/K/mol
237.96 K	135.18 ± 0.67 J/K/mol
238.78 K	135.77 ± 0.67 J/K/mol
239.59 K	135.43 ± 0.67 J/K/mol
240 K	135.44 ± 0.58 J/K/mol
240.41 K	136.44 ± 0.67 J/K/mol
241.22 K	136.59 ± 0.67 J/K/mol
242.04 K	136.32 ± 0.67 J/K/mol
242.86 K	137.27 ± 0.67 J/K/mol
243.68 K	137.4 ± 0.67 J/K/mol
244.44 K	137.03 ± 0.67 J/K/mol
244.5 K	136.97 ± 0.67 J/K/mol
244.81 K	137.21 ± 0.67 J/K/mol
244.94 K	137.26 ± 0.67 J/K/mol
245.31 K	136.68 ± 0.67 J/K/mol
245.38 K	137.26 ± 0.67 J/K/mol
245.44 K	137.55 ± 0.67 J/K/mol
245.94 K	137.54 ± 0.67 J/K/mol
245.96 K	137.42 ± 0.67 J/K/mol
246.13 K	137.45 ± 0.67 J/K/mol
246.46 K	137.69 ± 0.67 J/K/mol
246.53 K	137.6 ± 0.67 J/K/mol
246.95 K	137.65 ± 0.67 J/K/mol
246.96 K	137.71 ± 0.67 J/K/mol
247.11 K	137.65 ± 0.67 J/K/mol
247.46 K	137.8 ± 0.67 J/K/mol
247.68 K	138 ± 0.67 J/K/mol
247.77 K	137.93 ± 0.67 J/K/mol
247.97 K	138.06 ± 0.67 J/K/mol
248.25 K	138.01 ± 0.67 J/K/mol
248.47 K	138.27 ± 0.67 J/K/mol
248.59 K	138.16 ± 0.67 J/K/mol
248.83 K	138.31 ± 0.67 J/K/mol
248.98 K	138.36 ± 0.67 J/K/mol
249.41 K	138.87 ± 0.67 J/K/mol
249.42 K	138.7 ± 0.67 J/K/mol
249.48 K	138.72 ± 0.67 J/K/mol
249.98 K	139.15 ± 0.68 J/K/mol and 138.93 ± 0.68 J/K/mol
250.24 K	139.23 ± 0.68 J/K/mol
250.49 K	139.26 ± 0.68 J/K/mol
250.56 K	139.43 ± 0.68 J/K/mol
250.99 K	139.62 ± 0.68 J/K/mol
251.06 K	139.79 ± 0.68 J/K/mol
251.14 K	139.9 ± 0.68 J/K/mol
251.5 K	140.25 ± 0.68 J/K/mol
251.71 K	140.3 ± 0.68 J/K/mol
251.88 K	140.46 ± 0.68 J/K/mol
252 K	140.41 ± 0.68 J/K/mol
252.28 K	140.89 ± 0.68 J/K/mol
252.51 K	140.56 ± 0.68 J/K/mol
252.7 K	140.98 ± 0.69 J/K/mol
252.86 K	141.23 ± 0.69 J/K/mol
253.02 K	141.02 ± 0.69 J/K/mol
253.43 K	141.89 ± 0.69 J/K/mol
253.52 K	141.72 ± 0.69 J/K/mol and 141.4 ± 0.69 J/K/mol
254.01 K	143.16 ± 0.7 J/K/mol
254.03 K	142.77 ± 0.7 J/K/mol
